pIC50: −log10 of the molar value.
Tests used:
EphA4 = molecular target: T1, EphA4 (UniProt Ref: P54764) (Homo sapiens, UniProt P54764); experiment: EphA4 assay (Reaction Biology HotSpot radioactive kinase assay); format: biochemical; settings: EphA4 potency; ATP 10 μM
T1 construct: purchased Reaction Biology
Protocol: Inhibition of EphA4 (UniProt Ref: P54764) by a test compound is determined by a commercially available Reaction Biology proprietary nanoliter radioactive HotSpot^SM assay (Reaction Biology, One great valley parkway, Suite 2, Malvern Pa., 19355, USA). The principle of the assay consists of the measurement of incorporated ^33P into poly[Glu:Tyr] (4:1) (0.2 mg/mL) when the substrate is phosphorylated by the enzyme using [^33P]-γ-ATP and ATP (10 μM).
To determine the IC50, a serial dilution of compound is tested starting from 10 or 3 μM (highest dilution) with a 1/3 dilution.

[1] = In vivo efficacy in the rat MNX (meniscectomised) model of osteoarthritis, OARSI score; set-up: species or system female Lewis rat; settings: versus MNX-vehicle
Source text: In vivo efficacy was studied in a female Lewis meniscectomised rat (MNX) model. The MNX rat model is a well-validated disease model of osteoarthritis (Janusz et al., 2002; Pritzker et al., 2006; Bendele et al., 2001).
Osteoarthritis is induced by meniscectomy at day 0 (D0) in the right leg of each rat by a transection of the medial collateral ligament and 4 mm of ligament are removed. Internal part of the meniscus is transected vertically into two flaps which are pushed to the front and the back of the synovial cavity. Sham animals undergo only anaesthesia, skin and muscle incision then suture. On day 1, rats are randomly assigned to a treatment group (n=20 per group) according to their body weight, in order to have a homogenous distribution. From D2 to D21, rats are dosed per os (po) once daily (qd) or twice a day (bid) with compounds formulated in methylcellulose (MC) 0.5% or in HPβCD 10% pH3.0.
After at least 7 days of treatment, blood is sampled at 4 time points post administration: 0, 1, 3 and 6 h (and assuming 24 h is equal to the pre-dose sample), in order to determine steady-state plasma exposure.
At sacrifice, the right tibia of each rat is collected and processed for histological analysis. After 48 h of fixation in 4% formaldehyde, tibias are decalcified in Osteosoft for 7 days, and cut into 2 half parts prior to embedding face to face in paraffin. Five series of sections are cut at 200 μm intervals, covering about 1.5 mm of the middle part of the bone. One series of slides is stained with Safranin O and light green for morphological evaluation and OARSI scoring. The other series of slides are mounted with DAPI for chondrocyte density measurement.
The extent of cartilage injury reflecting osteoarthritis in the tibial plateau is evaluated and scored using the OARSI method based on the grading and the staging of cartilage lesion (Pritzker et al., 2006). The OARSI scoring is assessed in a blinded manner by two different readers. For each tibia, one score is attributed as the median of the OARSI score of the 5 sections.
OARSI score=grade×stage (1 to 24)
Grade=lesion depth into cartilage area, providing information on arthritis severity.
Stage=lesion extent over cartilage surface, providing information on arthritis extent.
For statistical analysis, medians of groups are compared with a stratified Kruskal-Wallis test followed by Dunnett multiple comparison post hoc test.
Significance levels: *p<0.05; **p<0.01; ***p<0.001 versus MNX-vehicle. Statistical analyses are done on all groups of the studies

[2] = Pharmacokinetics in mice (exposure, AUC); format: in vivo; settings: male, CD1, plasma, mouse, po
Protocol: This study was performed with 42 naïve male CD1 mice (18-20 g, 4-5 weeks old). Mice are obtained from Janvier, Le Genest St Isle, France.
A controlled environment was maintained in the room with optimal conditions of approximately 15 air changes per hour, a temperature of 22±2 C, a relative humidity of 30-70% and a 12 hour light/12 hour dark cycle (nightlight during the night period).
Pelleted diet for rodents (UAR A04C-10) was used and was provided ad libitum. Before p.o. dosing, the animals are deprived of food for at least 12 hours before compound administration and 4 hours after administration. All animals had free access to tap water.
[…] The i.v. bolus administration is given with a dose volume of 5 mL/kg and the oral administration is given with a dose volume of 10 mL/kg. Actual dose volumes are based on the mean of 10 body weights.
The vehicle used to formulate compounds for oral administration is methylcellulose in water (0.5% in water)
From all animals approximately 500 μL blood samples are collected by intra-cardiac puncture under gaseous anesthesia and placed into tubes containing Li-heparin as anticoagulant. Blood samples are collected at various time points (i.v.: 0.05, 0.25, 0.5, 1, 3, 5 and 8 hours after dosing; p.o.: 0.25, 0.5, 1, 3, 5, 8 and 24 hours after dosing). Each mouse is sampled once and euthanized.
Blood is kept on ice. Within 1 hour after sampling, blood is centrifuged at 5,000 rpm for 10 min at 4° C. Immediately after centrifugation, the resulting plasma samples are collected into polypropylene tubes and are kept frozen at −20° C. pending bioanalysis.
Plasma samples are assayed by LC-MS/MS. Plasma proteins are precipitated with an excess of methanol containing the internal standard and the corresponding supernatant is injected on a C18 column. Analytes are eluted out the HPLC system by increasing the percentage of the organic mobile phase. An API4000 mass spectrometer (AB Sciex™) is used for the detection and quantification.
Pharmacokinetic parameters are calculated by non-compartmental analysis using WinNonlin® software (Pharsight, version 5.2).

T1 sequence (P54764 20-986): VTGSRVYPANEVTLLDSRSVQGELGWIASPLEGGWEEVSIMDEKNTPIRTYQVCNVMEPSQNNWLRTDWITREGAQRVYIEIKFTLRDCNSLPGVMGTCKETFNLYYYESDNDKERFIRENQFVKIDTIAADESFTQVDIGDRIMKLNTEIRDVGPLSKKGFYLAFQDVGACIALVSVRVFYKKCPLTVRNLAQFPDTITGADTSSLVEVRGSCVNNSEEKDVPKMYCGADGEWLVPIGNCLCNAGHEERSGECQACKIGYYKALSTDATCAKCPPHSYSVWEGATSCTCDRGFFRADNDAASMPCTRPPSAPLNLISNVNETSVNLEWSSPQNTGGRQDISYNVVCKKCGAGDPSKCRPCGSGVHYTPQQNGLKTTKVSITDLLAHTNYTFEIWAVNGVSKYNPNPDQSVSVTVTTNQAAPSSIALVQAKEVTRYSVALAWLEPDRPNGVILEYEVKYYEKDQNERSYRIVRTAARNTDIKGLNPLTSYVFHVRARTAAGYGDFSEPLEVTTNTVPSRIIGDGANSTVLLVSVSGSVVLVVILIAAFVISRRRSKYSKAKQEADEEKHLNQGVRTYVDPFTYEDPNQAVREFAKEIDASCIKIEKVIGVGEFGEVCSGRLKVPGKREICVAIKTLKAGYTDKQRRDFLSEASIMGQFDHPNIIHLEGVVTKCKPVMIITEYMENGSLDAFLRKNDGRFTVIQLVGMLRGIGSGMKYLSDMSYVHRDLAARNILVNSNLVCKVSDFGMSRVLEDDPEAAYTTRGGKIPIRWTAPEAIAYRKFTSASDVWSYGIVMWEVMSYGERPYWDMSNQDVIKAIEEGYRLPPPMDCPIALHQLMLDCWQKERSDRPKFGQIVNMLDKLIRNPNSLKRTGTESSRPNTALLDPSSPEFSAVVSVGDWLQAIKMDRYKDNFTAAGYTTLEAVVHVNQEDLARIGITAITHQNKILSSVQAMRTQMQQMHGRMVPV

pIC50 (EphA4) | Compound | OARSI score ([1]; 30 mg/kg) | also measured
7.60 to 11.00 | Cc1ccc(NC(=O)c2cccc(C(F)(F)F)c2)cc1-c1ccc2c(C(O)CN3CCOCC3)n[nH]c2n1 (stereo not shown) [Compound 2, N-{3-[3-(1-Hydroxy-2-morpholin-4-yl-ethyl)-1H-pyrazolo[3,4-b]pyridin-6-yl]-4-methyl-phenyl}-3-trifluoromethyl-benzamide] | – | OARSI score ([1]; 20 mg/kg): −17%, p < 0.05
– | Cc1ccc(NC(=O)c2cccc(N(C)C)c2)cc1-c1ccc2c(C(O)CN3CCOCC3)n[nH]c2n1 (stereo not shown) [Compound 6, 3-Dimethylamino-N-{3-[3-(1-hydroxy-2-morpholin-4-yl-ethyl)-1H-pyrazolo[3,4-b]pyridin-6-yl]-4-methyl-phenyl}-benzamide] | ns | –
7.00 to 7.30 | COc1cc(OC)cc(C(=O)Nc2ccc(C)c(-c3ccc4c(C(C)O)n[nH]c4n3)c2)c1 (stereo not shown) [Compound 9, N-{3-[3-(1-Hydroxy-ethyl)-1H-pyrazolo[3,4-b]pyridin-6-yl]-4-methyl-phenyl}-3,5-dimethoxy-benzamide] | ns | –
– | CCc1n[nH]c2nc(-c3cc(NC(=O)c4cc(OC)cc(OC)c4)cnc3C)ccc12 [Compound 13, N-[5-(3-Ethyl-1H-pyrazolo[3,4-b]pyridin-6-yl)-6-methyl-pyridin-3-yl]-3,5-dimethoxy-benzamide] | ns | –
< 7.00 | COc1cc(OC)cc(C(=O)Nc2ccc(C)c(-c3ccc4c(C5(O)CC5)n[nH]c4n3)c2)c1 [Compound 29, N-{3-[3-(1-Hydroxy-cyclopropyl)-1H-pyrazolo[3,4-b]pyridin-6-yl]-4-methyl-phenyl}-3,5-dimethoxy-benzamide] | – | OARSI score ([1]; 15 mg/kg): ns
7.30 to 7.60 | Cc1ccc(NC(=O)c2cccc(C(F)(F)F)c2)cc1-c1ccc2c([C@H](C)O)n[nH]c2n1 [Compound 55, N-{3-[3-((S)-1-Hydroxy-ethyl)-1H-pyrazolo[3,4-b]pyridin-6-yl]-4-methyl-phenyl}-3-trifluoromethyl-benzamide] | −23%, p < 0.05 | AUC ([2]; 5 mg/kg): 851 ng·h/mL; AUC ([2]; 30 mg/kg): 31600 ng·h/mL
– | Cc1ccc(NC(=O)c2cccc(C(F)(F)F)c2)cc1-c1cc(C)c2c(N)n[nH]c2n1 [Compound A, N-(3-(3-amino-4-methyl-1H-pyrazolo[3,4-b]pyridin-6-yl)-4-methylphenyl)-3-(trifluoromethyl)benzamide] | – | AUC ([2]; 30 mg/kg): 1130 ng·h/mL

Reference: patent publication US9062051B2, “Compounds and pharmaceutical compositions thereof for the treatment of proliferative disorders” (GALAPAGOS NV, priority 2014, dated 2015)
